From patent US7166625B2, “Method for treating fibrotic diseases and other indications” (Alteon, Inc., priority 2000, dated 2007)
Structures can show the parent of a compound that is named as a salt.

Experiments:
[1] = literature series of mainly imidazolium compounds; cited from earlier work
Type IV collagen = assay: In situ hybridization studies, Type IV collagen expression
Description: (§1) Cardiovascular risk correlates more closely with the systolic and the pulse pressure than with the diastolic pressure. In diabetic patients, the cardiovascular risk profile of diabetic patients is strongly correlated to duration of diabetes, glycemic control and blood pressure. Structural matrix proteins contribute to the function of vessels and the heart, and changes in the physical behavior of cardiovascular walls are believed to be important determinants of circulatory function. In elderly individuals, the loss of compliance in the aorta leads to isolated systolic hypertension, which in turn expands the arterial wall and thereby diminishes the dynamic range of elasticity. […] Treatment with 3-[2-phenyl-2-oxoethyl]-4,5-dimethyl-thiazolium salt lead to a reduction in the mass of collagen in cardiovascular tissues.

Rats = assay: Rat myocardial infarct after ligation of the left anterior descending coronary artery; assay type: in vivo; conditions: 10 mg/kg daily intraperitoneal, 30 days before and 14 days after coronary ligation
Protocol: Rats received a daily intraperitoneal dose of 10 mg/kg 3-[2-phenyl-2-oxoethyl]-4,5-dimethyl-thiazolium salt (compound A) (n=14) or placebo (n=15) for 30 days. The animals then underwent a thoracotomy and the left anterior descending coronary artery ligated. The chest was then closed and the animals allowed to recover for 14 days while continuing to be treated with compound A or placebo. The animals were then sacrificed and the hearts removed for histological examination. The weight of the infarcted tissue was 0.16±0.04 g for the placebo treated animals compared to 0.11±0.05 g for the compound A treated animals (p=0.04).

dog model for diabetes = assay: Dog model for diabetes, ventricular elasticity; assay type: in vivo
Description: as §1

[2] = system: rodents, canines and primates; assay: In vivo studies of vascular stiffening and collagen mass in cardiovascular tissues
Description: as §1

[3] = system: elderly patients with pulse pressures greater than 60 mm Hg; assay: Phase IIa clinical trial; assay type: in vivo, human
Description: When the heart pumps blood into the vascular system, the ability of the arteries to expand helps to push blood through the body. When arteries become stiff, as they do in the natural process of aging, the ability of the arteries to expand is diminished and also has consequences for the heart. The heart has to work harder to pump the blood into the stiff arteries, and eventually hypertrophies (enlarges in size) to accomplish this. A hypertrophied heart is an inefficient pump, and is one of the disorders that leads to congestive heart failure. […] The potential clinical benefit of this is to lessen the effort that the heart must expend to push blood throughout the body. The effect is also believed to contribute to preventing hypertrophy and subsequent inefficiency of the heart, which inefficiency would contribute to congestive heart failure.
Atherosclerosis is a disease that involves deposition of blood lipids in plaque in the arteries throughout the body. In coronary arteries, accumulation of plaque progressively leads to reduced coronary flow, with occlusion of the arteries causing focal death of cardiac tissue (myocardial infarction, heart attack). If the amount of tissue that dies is large enough, death ensures. In a Phase IIa trial, one compound believed to work by a mechanism shared by the compounds of the invention, 3-[2-phenyl-2-oxoethyl]-4,5-dimethyl-thiazolium salt, […] the amount of circulating triglycerides (lipids). […] Reducing local deposits of plaque should eventually lessen the risk of myocardial infarction and death due to heart attacks.
Pulse pressure is the difference between systolic and diastolic blood pressure. In a young human, systolic pressure is typically 120 mm Hg and diastolic pressure is 80 mm Hg, resulting in a pulse pressure of 40 mm Hg. With age, in many individuals pulse pressure increases, largely due to the increase in systolic pressure that results from stiff vessel disease. In individuals with pulse pressure greater than 60 mm Hg there is an increased risk of death from cardiovascular morbidities.

TGFbeta = assay: In situ hybridization studies, TGFbeta expression
Description: as §1

| Compound | glucose lowering effect [1] | expression of Type IV collagen (Type IV collagen) | thickness of the ventricular wall in the infarcted zone (Rats; p=0.09 vs placebo) [mm] | weight of the infarcted tissue (Rats; placebo 0.16±0.04 g, p=0.04) [g] | end diastolic pressure and end diastolic volume, indicators of ventricular elasticity (dog model for diabetes) | mass of collagen in cardiovascular tissues ([2]; in vivo) | vascular stiffening ([2]; in vivo studies in rodents, canines and primates) | stiffness of arteries, measured by the ratio of stroke volume (ml) to pulse pressure (mm Hg) ([3]; Phase IIa clinical trial) | amount of circulating triglycerides (lipids) ([3]; Phase IIa trial) | pulse pressure ([3]; Phase IIa trial, elderly patients with pulse pressures greater than 60 mm Hg, statistically significant) | expression of TGFbeta (TGFbeta) |
| --- | --- | --- | --- | --- | --- | --- | --- | --- | --- | --- | --- |
| 3-[2-(3,5-Dimethoxyphenyl)-2-oxoethyl]-oxazolium | inactive | – | – | – | – | – | – | – | – | – | – |
| Cc1sc[n+](CC(=O)c2ccccc2)c1C [compound A, 3-[2-phenyl-2-oxoethyl]-4,5-dimethyl-thiazolium salt] | – | reduces | 2.56±0.22 | 0.11 ± 0.05 | returned to a value at about the mid-point between the disease impaired value and the value for control dogs | reduction | substantially ameliorating vascular stiffening | reverse the stiffness of arteries | increased | reduced | reduces |
